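The compound was tested at five concentrations on cells cultured in 96-well plates, with a 48-hour exposure period. At the TGI there is no net growth.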
Assays:
Assay in all cases: inhibition of tumour cell growth, NCI panel, 48 h
HOP-62 NSCLC = tested on: HOP-62 NSCLC
NCI-H23 lung = tested on: NCI-H23 lung
UACC-62 melanoma = tested on: UACC-62 melanoma
MOLT-4 leukemia = tested on: MOLT-4 leukemia
M19-MEL melanoma = tested on: M19-MEL melanoma
NCI-H226 lung = tested on: NCI-H226 lung
MALME-3M melanoma = tested on: MALME-3M melanoma
OVCAR-3 ovarian = tested on: OVCAR-3 ovarian
SK-MEL-28 melanoma = tested on: SK-MEL-28 melanoma
SNB-19 CNS = tested on: SNB-19 CNS
U251 CNS = tested on: U251 CNS
DLD-1 colon = tested on: DLD-1 colon
OVCAR-4 ovarian = tested on: OVCAR-4 ovarian
UO-31 renal = tested on: UO-31 renal
SNB-75 CNS = tested on: SNB-75 CNS
TK-10 renal = tested on: TK-10 renal
HCT-15 colon = tested on: HCT-15 colon
DMS 114 small cell lung = tested on: DMS 114 small cell lung
UACC-257 melanoma = tested on: UACC-257 melanoma
HL-60(TB) leukemia = tested on: HL-60(TB) leukemia
OVCAR-5 ovarian = tested on: OVCAR-5 ovarian
SR leukemia = tested on: SR leukemia
CAKI-1 renal = tested on: CAKI-1 renal
NCI-H522 lung = tested on: NCI-H522 lung
M14 melanoma = tested on: M14 melanoma
HCT-116 colon = tested on: HCT-116 colon
CCRF-CEM leukemia = tested on: CCRF-CEM leukemia
SK-MEL-2 melanoma = tested on: SK-MEL-2 melanoma
HT29 colon = tested on: HT29 colon
SF-268 CNS = tested on: SF-268 CNS
A549 NSCLC = tested on: A549 NSCLC
HOP-92 NSCLC = tested on: HOP-92 NSCLC
786-0 renal = tested on: 786-0 renal
OVCAR-8 ovarian = tested on: OVCAR-8 ovarian
ACHN renal = tested on: ACHN renal
LXFL 529 NSCLC = tested on: LXFL 529 NSCLC
SF-295 CNS = tested on: SF-295 CNS
K-562 leukemia = tested on: K-562 leukemia
HCC-2998 colon = tested on: HCC-2998 colon
SK-MEL-5 melanoma = tested on: SK-MEL-5 melanoma
SW-620 colon = tested on: SW-620 colon
NCI-H460 lung = tested on: NCI-H460 lung
RPMI-8226 leukemia = tested on: RPMI-8226 leukemia
KM20L2 colon = tested on: KM20L2 colon
COLO 205 colon = tested on: COLO 205 colon
IGROV1 ovarian = tested on: IGROV1 ovarian
DMS 273 small cell lung = tested on: DMS 273 small cell lung
KM12 colon = tested on: KM12 colon
SF-539 CNS = tested on: SF-539 CNS
SK-OV-3 ovarian = tested on: SK-OV-3 ovarian
SN12C renal = tested on: SN12C renal
SNB-78 CNS = tested on: SNB-78 CNS
RXF 393 renal = tested on: RXF 393 renal
EKVX NSCLC = tested on: EKVX NSCLC
LOX IMVI melanoma = tested on: LOX IMVI melanoma
A498 renal = tested on: A498 renal

With `Cc1ccc(-c2cc(=S)n(-c3ccccc3)c3nc(=S)n(-c4ccccc4)c(N)c23)cc1` the TGI (HOP-62 NSCLC) was greater than 100 µM, the TGI (NCI-H23 lung) was greater than 100 µM and the TGI (UACC-62 melanoma) was greater than 100 µM. The TGI (MOLT-4 leukemia) was greater than 100 µM, the TGI (M19-MEL melanoma) was greater than 100 µM and the TGI (NCI-H226 lung) was greater than 100 µM. The TGI (MALME-3M melanoma) was greater than 100 µM, the TGI (OVCAR-3 ovarian) was greater than 100 µM and the TGI (SK-MEL-28 melanoma) was greater than 100 µM. The TGI (SNB-19 CNS) was greater than 100 µM, the TGI (U251 CNS) was greater than 100 µM and the TGI (DLD-1 colon) was greater than 100 µM. The TGI (OVCAR-4 ovarian) was greater than 100 µM, the TGI (UO-31 renal) was greater than 100 µM and the TGI (SNB-75 CNS) was greater than 100 µM. The TGI (TK-10 renal) was greater than 100 µM, the TGI (HCT-15 colon) was greater than 100 µM and the TGI (DMS 114 small cell lung) was greater than 100 µM. The TGI (UACC-257 melanoma) was greater than 100 µM, the TGI (HL-60(TB) leukemia) was greater than 100 µM and the TGI (OVCAR-5 ovarian) was greater than 100 µM. For the same compound, the TGI (SR leukemia) was greater than 100 µM, the TGI (CAKI-1 renal) was greater than 100 µM and the TGI (NCI-H522 lung) was greater than 100 µM. For the same compound, the TGI (M14 melanoma) was greater than 100 µM, the TGI (HCT-116 colon) was greater than 100 µM and the TGI (CCRF-CEM leukemia) was greater than 100 µM. It also gave a TGI (SK-MEL-2 melanoma) greater than 100 µM, a TGI (HT29 colon) greater than 100 µM and a TGI (SF-268 CNS) greater than 100 µM. It also gave a TGI (A549 NSCLC) greater than 100 µM, a TGI (HOP-92 NSCLC) greater than 100 µM and a TGI (786-0 renal) greater than 100 µM. The TGI (OVCAR-8 ovarian) was greater than 100 µM, the TGI (ACHN renal) was greater than 100 µM and the TGI (LXFL 529 NSCLC) was greater than 100 µM. It also gave a TGI (SF-295 CNS) greater than 100 µM, a TGI (K-562 leukemia) greater than 100 µM and a TGI (HCC-2998 colon) greater than 100 µM. It also gave a TGI (SK-MEL-5 melanoma) greater than 100 µM, a TGI (SW-620 colon) greater than 100 µM and a TGI (NCI-H460 lung) greater than 100 µM. The TGI (RPMI-8226 leukemia) was greater than 100 µM, the TGI (KM20L2 colon) was greater than 100 µM and the TGI (COLO 205 colon) was greater than 100 µM. For the same compound, the TGI (IGROV1 ovarian) was greater than 100 µM, the TGI (DMS 273 small cell lung) was greater than 100 µM and the TGI (KM12 colon) was greater than 100 µM. The TGI (SF-539 CNS) was greater than 100 µM.

`CN(C)C(=S)/N=c1\ss/c(=N\C(=S)N(C)C)n1C1CCCCC1` gave a TGI (HOP-62 NSCLC) greater than 100 µM, a TGI (NCI-H23 lung) greater than 100 µM and a TGI (UACC-62 melanoma) greater than 100 µM. For the same compound, the TGI (MOLT-4 leukemia) was greater than 100 µM, the TGI (M19-MEL melanoma) was greater than 100 µM and the TGI (NCI-H226 lung) was greater than 100 µM. The TGI (MALME-3M melanoma) was greater than 100 µM, the TGI (SK-OV-3 ovarian) was greater than 100 µM and the TGI (OVCAR-3 ovarian) was greater than 100 µM. The TGI (SN12C renal) was greater than 100 µM, the TGI (SK-MEL-28 melanoma) was greater than 100 µM and the TGI (SNB-19 CNS) was greater than 100 µM. The TGI (U251 CNS) was greater than 100 µM, the TGI (OVCAR-4 ovarian) was 63 µM and the TGI (UO-31 renal) was greater than 100 µM. It also gave a TGI (SNB-75 CNS) greater than 100 µM, a TGI (TK-10 renal) greater than 100 µM and a TGI (HCT-15 colon) greater than 100 µM. The TGI (SNB-78 CNS) was greater than 100 µM, the TGI (DMS 114 small cell lung) was 24.2 µM and the TGI (RXF 393 renal) was greater than 100 µM. The TGI (UACC-257 melanoma) was greater than 100 µM, the TGI (HL-60(TB) leukemia) was greater than 100 µM and the TGI (OVCAR-5 ovarian) was greater than 100 µM. It also gave a TGI (SR leukemia) greater than 100 µM, a TGI (CAKI-1 renal) greater than 100 µM and a TGI (NCI-H522 lung) greater than 100 µM. For the same compound, the TGI (M14 melanoma) was greater than 100 µM, the TGI (HCT-116 colon) was greater than 100 µM and the TGI (CCRF-CEM leukemia) was greater than 100 µM. It also gave a TGI (SK-MEL-2 melanoma) greater than 100 µM, a TGI (EKVX NSCLC) greater than 100 µM and a TGI (HT29 colon) of 43.8 µM. The TGI (SF-268 CNS) was greater than 100 µM, the TGI (A549 NSCLC) was greater than 100 µM and the TGI (786-0 renal) was greater than 100 µM. For the same compound, the TGI (LOX IMVI melanoma) was greater than 100 µM, the TGI (OVCAR-8 ovarian) was greater than 100 µM and the TGI (ACHN renal) was greater than 100 µM. The TGI (SF-295 CNS) was greater than 100 µM, the TGI (K-562 leukemia) was greater than 100 µM and the TGI (HCC-2998 colon) was greater than 100 µM. The TGI (SK-MEL-5 melanoma) was greater than 100 µM, the TGI (SW-620 colon) was greater than 100 µM and the TGI (NCI-H460 lung) was 15.5 µM. It also gave a TGI (RPMI-8226 leukemia) greater than 100 µM, a TGI (KM20L2 colon) greater than 100 µM and a TGI (COLO 205 colon) greater than 100 µM. For the same compound, the TGI (IGROV1 ovarian) was greater than 100 µM, the TGI (A498 renal) was greater than 100 µM and the TGI (KM12 colon) was greater than 100 µM. The TGI (SF-539 CNS) was greater than 100 µM.
